Measured values from patent publication US9133168B2, “Pyrimidine derivatives, preparation thereof, and pharmaceutical use thereof as akt(pkb) phosphorylation inhibitors” (SANOFI, priority 2010, dated 2015).

Test system: AKT protein phosphorylated on serine 473 (P-AKT-S473) in PC3 human prostate carcinoma cells
Experiment: pAKT expression in PC3 human prostate carcinoma cells, MSD Multi-spot Biomarker detection (Test A)
Format: cell-based
Settings: 1 to 2 h incubation, P-AKT-S473, absolute IC50, mean of two independent experiments
Protocol: The inhibitory activity of the molecules on AKT phosphorylation is measured using the MSD Multi-spot Biomarker detection technique from Meso Scale Discovery also described below. […] The primary antibody specific for […]) is coated on to an electrode in each well of the 96-well plates of the MSD kit: after the addition of a protein lysate to each well, the signal is visualized by adding a secondary detection antibody labeled with an electrochemiluminescent compound. The procedure followed is the one described in the kit. […] On day 2, the cells are incubated in the presence or absence of the test products for 1 to 2 h at 37° C. in the presence of 5% CO2. The molecules, diluted in dimethyl sulfoxide (DMSO Sigma #D2650), are added from a 20-times concentrated stock solution, the final percentage of DMSO being 0.1%. The molecules are tested either at a single concentration of less than or equal to 10 μM, or at increasing concentrations in a range that can extend from less than 1 nM to 10 μM. After this incubation, the cells are lysed for the preparation of the proteins. […] At this stage, the plates containing the lysates can be frozen at -20° C. or at -80° C. The wells of the 96 well plates of the MSD kit are saturated for 1 h at ambient temperature with the blocking solution of the MSD kit. Four washes are carried out with 150 μl of Tris Wash Buffer of the MSD kit. The lysates previously prepared are transferred into the 96-well multi-spot plates of the MSD kit and incubated for 1 h at ambient temperature, with shaking. Four washes are carried out with 150 μl of Tris Wash Buffer of the MSD kit. 25 μl of the MSD sulfo-tag detection antibody solution are added to the wells and incubated for 1 h at ambient temperature, with shaking. Four washes are carried out with 150 μl of Tris Wash Buffer of the MSD kit. 150 μl of Read Buffer of the MSD kit are added to the wells and the plates are read immediately on the S12400 instrument from Meso Scale Discovery. The instrument measures a signal for each well. Wells without cells and containing the lysis buffer serve to determine the background noise that will be subtracted from all the measurements (min). The wells containing cells in the absence of product and in the presence of 0.1% DMSO are considered to be the 100% signal (max). The percentage inhibition is calculated for each concentration of product tested, according to the following formula: (1-((test-min)/(max-min)))×100. […] Two independent experiments make it possible to calculate the mean of the IC50 values.

IC50 (PC3 cells)	IC50 (Homo sapiens, PC-3, PC3 cells)	Structure (SMILES)
9 nM		CC1Cc2ccccc2N1C(=O)Cc1nc(N2CCOCC2)cc(=O)[nH]1 (single isomer, unassigned; (-)) [Example 22b, (−)-2-[2-(2-methyl-2,3-dihydroindol-1-yl)-2-oxoethyl]-6-morpholin(D8)-4-yl-3H-pyrimidin-4-one]
	42 nM	O=C(Cc1nc(N2CCOCC2)cc(=O)[nH]1)N1CCc2c(-c3ccccc3Cl)cccc21 [Example 14d, 2-{2-[4-(2-chlorophenyl)-2,3-dihydro-1H-indol-1-yl]-2-oxoethyl}-6-(morpholin-4-yl)pyrimidin-4(3H)-one]
	370 nM	O=C(Cc1nc(-c2ccncc2)cc(=O)[nH]1)N1CCc2c(F)cccc21 [Example 12b, 2-[2-(4-fluoro-2,3-dihydroindol-1-yl)-2-oxoethyl]-6-pyridin-4-yl-3H-pyrimidin-4-one]
	243 nM	CC(C)[C@@H]1Cc2ccccc2N1C(=O)Cc1nc(N2CCOCC2)cc(=O)[nH]1 [Example 40c, (+)-2-[2-(2-isopropyl-2,3-dihydroindol-1-yl)-2-oxoethyl]-6-morpholin-4-yl-3H-pyrimidin-4-one]
	91 nM	[2H]C1([2H])COCC([2H])([2H])N1c1cc(=O)[nH]c(CC(=O)N2CC(C)(C)c3ccccc32)n1 [Example 18b, 2-[2-(3,3-dimethyl-2,3-dihydroindol-1-yl)-2-oxoethyl]-6-morpholin(D4)-4-yl-3H-pyrimidin-4-one]
98 nM		CC1Cc2c(F)cccc2N1C(=O)Cc1nc(N2CCOCC2)cc(=O)[nH]1 (single isomer, unassigned; (+)) [Example 28c, (+)-2-{2-[4-fluoro-2-methyl-2,3-dihydro-1H-indol-1-yl]-2-oxoethyl}-6-(morpholin-4-yl)pyrimidin-4(3H)-one]
2 nM		O=C(Cc1nc(N2CCOCC2)cc(=O)[nH]1)N1c2ccccc2CC1c1ccc(F)cc1 (single isomer, unassigned; (-)) [Example 28d, (−)-2-{2-[2-(4-fluorophenyl)-2,3-dihydro-1H-indol-1-yl]-2-oxoethyl}-6-(morpholin-4-yl)pyrimidin-4(3H)-one]
	37 nM	O=C(Cc1nc(N2CCOCC2)cc(=O)n1C1CC1)N1CCc2c(Cl)cccc21 [Example 15d, 2-[2-(4-chloro-2,3-dihydro-1H-indol-1-yl)-2-oxoethyl]-3-cyclopropyl-6-(morpholin-4-yl)pyrimidin-4(3H)-one]
73 nM		CC1Cc2c(F)cccc2N1C(=O)Cc1nc(N2CCOCC2)cc(=O)n1C (single isomer, unassigned; (+)) [Example 30c, (+)-2-{2-[4-fluoro-2-methyl-2,3-dihydro-1H-indol-1-yl]-2-oxoethyl}-3-methyl-6-(morpholin-4-yl)pyrimidin-4(3H)-one]
	15 nM	O=C(Cc1nc(N2CCOCC2)cc(=O)[nH]1)N1c2ccccc2CC1CF (stereo not drawn) [Example 38d, 2-[2-((+)-2-Fluoromethyl-2,3-dihydroindol-1-yl)-2-oxoethyl]-6-morpholin-4-yl-3H-pyrimidin-4-one]
27 nM		O=C(Cc1nc(N2CCOC(CO)C2)cc(=O)[nH]1)N1CCc2c(Cl)cccc21 (single isomer, unassigned; (-)) [Example 25b, (−)-2-[2-(4-Chloro-2,3-dihydroindol-1-yl)-2-oxoethyl]-6-(2-hydroxymethylmorpholin-4-yl)-3H-pyrimidin-4-one]
16 nM		CC1Cc2cc(F)c(F)cc2N1C(=O)Cc1nc(N2CCOCC2)c(F)c(=O)[nH]1 (stereo not drawn) [Example 12a, 2-[2-((+)-5,6-difluoro-2-methyl-2,3-dihydroindol-1-yl)-2-oxoethyl]-5-fluoro-6-morpholin-4-yl-3H-pyrimidin-4-one]
203 nM		CC1Cc2c(F)cccc2N1C(=O)Cc1nc(N2CCOCC2)c(F)c(=O)n1C (stereo not drawn) [Example 23a, 5-fluoro-2-[2-((−)-4-fluoro-2-methyl-2,3-dihydroindol-1-yl)-2-oxoethyl]-3-methyl-6-morpholin-4-yl-3H-pyrimidin-4-one]
483 nM		CC1Cc2c(Br)cccc2N1C(=O)Cc1nc(N2CCOCC2)c(F)c(=O)[nH]1 (single isomer, unassigned; (+)) [Example 16a, (+)-2-{2-[4-bromo-2-methyl-2,3-dihydro-1H-indol-1-yl]-2-oxoethyl}-5-fluoro-6-(morpholin-4-yl)pyrimidin-4(3H)-one]
48 nM		O=C(Cc1nc(N2CCOCC2)cc(=O)[nH]1)N1c2ccccc2CC1C1CC1 (single isomer, unassigned; (+)) [Example 34d, (+)-2-[2-(2-cyclopropyl-2,3-dihydroindol-1-yl)-2-oxoethyl]-6-morpholin-4-yl-3H-pyrimidin-4-one]
167 nM		CC1Cc2c(OC(F)F)cccc2N1C(=O)Cc1nc(N2CCOCC2)cc(=O)n1C (single isomer, unassigned; (+)) [Example 31d, (+)-2-{2-[4-(difluoromethoxy)-2-methyl-2,3-dihydro-1H-indol-1-yl]-2-oxoethyl}-3-methyl-6-(morpholin-4-yl)pyrimidin-4(3H)-one]

Continued, compound first:

Structure (SMILES)	IC50 (PC3 cells)	IC50 (Homo sapiens, PC-3, PC3 cells)
C[C@@H]1Cc2ccccc2N1C(=O)Cc1nc(N2CCOCC2)cc(=S)[nH]1 [Example 3e, 1-((R)-2-methyl-2,3-dihydroindol-1-yl)-2-(4-morpholin-4-yl-6-thioxo-1,6-dihydropyrimidin-2-yl)ethanone]		8 nM
COc1ccccc1-c1cccc2c1CCN2C(=O)Cc1nc(N2CCOCC2)cc(=O)[nH]1 [Example 6d, 2-{2-[4-(2-methoxyphenyl)-2,3-dihydro-1H-indol-1-yl]-2-oxoethyl}-6-(morpholin-4-yl)pyrimidin-4(3H)-one]		32 nM
O=C(Cc1nc(N2CCOCC2)cc(=O)[nH]1)N1CCc2c1cccc2C(F)(F)F [Example 5d, 6-(morpholin-4-yl)-2-{2-oxo-2-[4-(trifluoromethyl)-2,3-dihydro-1H-indol-1-yl]ethyl}pyrimidin-4(3H)-one]		9 nM
O=C(Cc1nc(N2CCOCC2)cc(=O)[nH]1)N1CCc2c(-c3ccccc3)cccc21 [Example 2d, 6-(morpholin-4-yl)-2-[2-oxo-2-(4-phenyl-2,3-dihydro-1H-indol-1-yl)ethyl]pyrimidin-4(3H)-one]		24 nM
CC1CN(c2cc(=O)[nH]c(CC(=O)Nc3ccc(F)cc3)n2)CCO1 (single isomer, unassigned; (+)) [Example 2b, (+)-N-(4-fluorophenyl)-2-[4-(2-methylmorpholin-4-yl)-6-oxo-1,6-dihydropyrimidin-2-yl]acetamide]	6 nM	
CC1(C)CN(C(=O)Cc2nc(N3CCOCC3)cc(=O)[nH]2)c2cccc(F)c21 [Example 8c, 2-[2-(4-fluoro-3,3-dimethyl-2,3-dihydro-1H-indol-1-yl)-2-oxoethyl]-6-(morpholin-4-yl)pyrimidin-4(3H)-one]		52 nM
CN1CCC2(CC1)CN(C(=O)Cc1nc(N3CCOCC3)cc(=O)[nH]1)c1ccccc12 [Example 11d, 2-[2-(1′-methylspiro[indole-3,4′-piperidin]-1(2H)-yl)-2-oxoethyl]-6-(morpholin-4-yl)pyrimidin-4(3H)-one]		26 nM
CC1Cc2c(F)cccc2N1C(=O)Cc1nc(N2CCOCC2)c(F)c(=O)[nH]1 (stereo not drawn) [Example 11a, 5-fluoro-2-[2-((−)-2-methyl-4-fluoro-2,3-dihydroindol-1-yl)-2-oxoethyl]-6-morpholin-4-yl-3H-pyrimidin-4-one]	24 nM	
Cn1c(CC(=O)N2CCc3c(F)cccc32)nc(N2CCOCC2)cc1=S [Example 6e, 1-(4-fluoro-2,3-dihydroindol-1-yl)-2-(1-methyl-4-morpholin-4-yl-6-thioxo-1,6-dihydropyrimidin-2-yl)ethanone]		31 nM
O=C(Cc1nc(N2CCOC3CCCC32)cc(=O)[nH]1)N1CCc2c(F)cccc21 (stereo not shown) [Example 11b, 2-[2-(4-fluoro-2,3-dihydroindol-1-yl)-2-oxoethyl]-6-(hexahydrocyclopenta[1,4]oxazin-4-yl)-3H-pyrimidin-4-one]		12 nM
CC1Cc2c(Cl)cccc2N1C(=O)Cc1nc(N2CCOCC2)cc(=O)[nH]1 (stereo not shown) [Example 1c, 2-[2-(4-chloro-2-methyl-2,3-dihydro-1H-indol-1-yl)-2-oxoethyl]-6-(morpholin-4-yl)pyrimidin-4(3H)-one]	5 nM	
O=C(Cc1nc(N2CCOCC2)cc(=O)[nH]1)N1CCc2c(OC(F)F)cccc21 [Example 9d, 2-{2-[4-(difluoromethoxy)-2,3-dihydro-1H-indol-1-yl]-2-oxoethyl}-6-(morpholin-4-yl)pyrimidin-4(3H)-one]		44 nM
